Our source for the GI50 and inhibition in vivo values is patent publication US10894798B2, “Substituted dihydropyrrolopyrazole derivative” (UBE INDUSTRIES, LTD., priority 2015, dated 2021).

The subject of test [1] is ovary cancer cell line PA-1. The test is described as follows: Various human cancer cell growth inhibition test: PA-1. Type of test: cell-based. As to conditions: ATPlite, read-out: GI50 value (concentration necessary for inhibiting 50% of cell growth). From the text:
(§1) A breast cancer cell line BT-549 (obtained from American Type Culture Collection (ATCC)), a uterus cancer cell line C-33A (obtained from ATCC), an ovary cancer cell line PA-1 (obtained from ATCC), a large-cell lung cancer cell line NCI-H460 (obtained from ATCC), a small-cell lung cancer cell line NCI-H82 (obtained from ATCC), a kidney cancer cell line ACHN (obtained from ATCC), a pancreatic cancer cell line BxPC-3 (obtained from ATCC), a malignant melanoma cell line A375 (obtained from ATCC), a throat cancer cell line FaDu (obtained from ATCC), a medulloblastoma cell line Daoy (obtained from ATCC), a cutaneous epithelioid sarcoma cell line VA-ES-BJ (obtained from ATCC), a rhabdomyosarcoma cell line A-204 (obtained from ATCC), a prostate cancer cell line DU145 (obtained from ATCC), a bladder cancer cell line T24 (obtained from ATCC), a lymphoma cell line SR (obtained from ATCC), a neuroblastoma cell line SH-SY5Y (obtained from DS Pharma Biomedical Co., Ltd.), a liver cancer cell line HepG2 (obtained from DS Pharma Biomedical Co., Ltd.), a stomach cancer cell line HGC-27 (obtained from DS Pharma Biomedical Co., Ltd.), and a multiple myeloma cell line NCI-H929 (obtained from DS Pharma Biomedical Co., Ltd.) were used as human cancer cell lines.
(§2) Each cell line was cultured in a cell culture medium recommended by ATCC or DS Pharma Biomedical Co., Ltd. and inoculated at 0.3 to 5.0×10^3 cells/well to a 96-well plate. The cells were cultured overnight in a carbon dioxide incubator of 37° C. containing 5% carbon dioxide. The medium was replaced with a fresh medium on the next day, then replaced with a mixed solution of a DMSO solution of a test compound with varying concentrations and a culture medium (final DMSO concentration: 0.1%), and left standing in a carbon dioxide incubator (day 0). IV-361, IV-379, IV-3, IV-215, IV-299, IV-669, IV-1049, and palbociclib (for comparison) were used as test compounds. For a control group, DMSO was added instead of the DMSO solution of the test compound to a cell culture medium (final DMSO concentration: 0.1%).
(§3) After culture for a predetermined period, the ATP activity of BT-549, C-33A, PA-1, NCI-H460, NCI-H82, ACHN, BxPC-3, A375, FaDu, Daoy, VA-ES-BJ, A-204, DU145, T24, and SR was measured by using ATPlite (manufactured by PerkinElmer, Inc.). The ATP activity of SH-SY5Y, HepG2, HGC-27, and NCI-H929 was measured by using CellTiter-Glo (manufactured by Promega Corp.).
(§4) The rate of inhibition of cell growth (%) was calculated according to the expression given below. Specifically, in the case where the difference between the ATP activity before culture (day 0) and the ATP activity after culture in the test compound-administered group is the same as the difference between the ATP activity before culture (day 0) and the ATP activity after culture in the control group, the rate of inhibition of cell growth is 0%. Rate of inhibition of cell growth=(1−((ATP activity of the test compound-administered group after culture)−(ATP activity of the test compound-administered group on day 0))/((ATP activity of the control group after culture)−(ATP activity of the control group on day 0)))×100
(§5) The concentration of the test compound necessary for inhibiting 50% of cell growth (GI50 value) was calculated by using EXSUS (version 8.1.0, manufactured by CAC Exicare Corp.).
For orientation: In ATP-based viability assays light output follows the ATP content of the culture.

Test [2] has as its system uterus cancer cell line C-33A. The test is described as follows: Various human cancer cell growth inhibition test: C-33A. Type of test: cell-based. As to conditions: ATPlite, read-out: GI50 value (concentration necessary for inhibiting 50% of cell growth).
From the text: as §1, §2, §3, §4, §5

For test [3], the system named is multiple myeloma cell line NCI-H929. Briefly: Various human cancer cell growth inhibition test: NCI-H929. Type of test: cell-based. As to conditions: CellTiter-Glo, read-out: GI50 value (concentration necessary for inhibiting 50% of cell growth).
From the text: as §1, §2, §3, §4, §5

The subject of test [4] is large-cell lung cancer cell line NCI-H460. Briefly: Various human cancer cell growth inhibition test: NCI-H460. As to conditions: ATPlite, read-out: GI50 value (concentration necessary for inhibiting 50% of cell growth). The class given is cell-based.
From the text: as §1, §2, §3, §4, §5

The test system of test [5] is rhabdomyosarcoma cell line A-204. Briefly: Various human cancer cell growth inhibition test: A-204. The class given is cell-based. As to conditions: A204, ATPlite, read-out: GI50 value (concentration necessary for inhibiting 50% of cell growth).
From the text: as §1, §2, §3, §4, §5

Test [6] deals with stomach cancer cell line HGC-27. The test is described as follows: Various human cancer cell growth inhibition test: HGC-27. The class given is cell-based. As to conditions: CellTiter-Glo, read-out: GI50 value (concentration necessary for inhibiting 50% of cell growth).
From the text: as §1, §2, §3, §4, §5

For test [7], the system named is small-cell lung cancer cell line NCI-H82. The test is described as follows: Various human cancer cell growth inhibition test: NCI-H82. Type of test: cell-based. As to conditions: ATPlite, read-out: GI50 value (concentration necessary for inhibiting 50% of cell growth).
From the text: as §1, §2, §3, §4, §5

The subject of test [8] is throat cancer cell line FaDu. The test is described as follows: Various human cancer cell growth inhibition test: FaDu. Type of test: cell-based. As to conditions: ATPlite, read-out: GI50 value (concentration necessary for inhibiting 50% of cell growth).
From the text: as §1, §2, §3, §4, §5

Test [9] has as its system pancreatic cancer cell line BxPC-3. Briefly: Various human cancer cell growth inhibition test: BxPC-3. The class given is cell-based. As to conditions: ATPlite, read-out: GI50 value (concentration necessary for inhibiting 50% of cell growth).
From the text: as §1, §2, §3, §4, §5

For test [10], the system named is kidney cancer cell line ACHN. The test is described as follows: Various human cancer cell growth inhibition test: ACHN. The class given is cell-based. As to conditions: ATPlite, read-out: GI50 value (concentration necessary for inhibiting 50% of cell growth).
From the text: as §1, §2, §3, §4, §5

The subject of test [11] is malignant melanoma cell line A375. The test is described as follows: Various human cancer cell growth inhibition test: A375. The class given is cell-based. As to conditions: A-375, ATPlite, read-out: GI50 value (concentration necessary for inhibiting 50% of cell growth).
From the text: as §1, §2, §3, §4, §5

Test [12] deals with breast cancer cell line BT-549. Briefly: Various human cancer cell growth inhibition test: BT-549. The class given is cell-based. As to conditions: ATPlite, read-out: GI50 value (concentration necessary for inhibiting 50% of cell growth).
From the text: as §1, §2, §3, §4, §5

Test [13] concerns mouse imiquimod-induced psoriasis model. The test is described as follows: Ear thickening suppression test using mouse imiquimod-induced psoriasis model. The class given is in vivo. As to conditions: topical, application of a 0.01% solution in methanol, female BALB/c mice, read-out: rate of inhibition of increase in ear thickness. How it is done: An imiquimod-induced psoriasis model test was carried out by modifying the method of Leslie van der Fits et al. (J. Immunol. 182, 5836 (2009)).
Female BALB/c mice (supplied by Charles River Laboratories Japan, Inc.) were used as laboratory animals. On the start day of the test, the thicknesses of the right auricles of the mice were measured with a thickness gauge (manufactured by TECLOCK Corp.). A test compound or a solvent was applied or orally administered thereto, and after a certain time, a certain amount of Beselna Cream 5% (containing 5% imiquimod, manufactured by Mochida Pharmaceutical Co., Ltd.) was applied to the insides of the right auricles. The test compound or solvent application or oral administration and the imiquimod application were carried out for a certain period, and the thicknesses of the right auricles were measured again on the final day. The thicknesses of the right auricles were compared between the solvent-administered group and the test compound group, and the rate of inhibition was calculated.

In test [14] the test system is medulloblastoma cell line Daoy. The test is described as follows: Various human cancer cell growth inhibition test: Daoy. The class given is cell-based. As to conditions: ATPlite, read-out: GI50 value (concentration necessary for inhibiting 50% of cell growth).
From the text: as §1, §2, §3, §4, §5

Regarding `Cc1cccc(Br)c1NC(=O)N1Cc2c(NC(=O)C3([Si](C)(C)C)CCC3)n[nH]c2C1(C)C` [IV-299, N-(2-Bromo-6-methylphenyl)-6,6-dimethyl-3-[1-(trimethylsilyl)cyclobutanecarboxamido]-4,6-dihydropyrrolo[3,4-c]pyrazole-5 (1H)-carboxamide], the GI50 in test [1], in test [2], in test [3], in [4], in [5] and in test [6] was < 300 nM throughout. The GI50 in test [7], in test [8], in [9], in test [10], in test [11] and in test [12] was < 300 nM throughout. In addition, the GI50 in test [14] is < 300 nM. Further, the inhibition in vivo at 0.01 % in test [13] is ≥ 50%.

Regarding `Cc1cccc(Cl)c1NC(=O)N1Cc2c(NC(=O)C3([Si](C)(C)C)CCC3)n[nH]c2C1(C)C` [IV-215, N-(2-Chloro-6-methylphenyl)-6,6-dimethyl-3-[1-(trimethylsilyl)cyclobutanecarboxamido]-4,6-dihydropyrrolo[3,4-c]pyrazole-5 (1H)-carboxamide], the GI50 in test [1], in [2], in test [3], in test [4], in [5] and in [6] was < 300 nM each time. Moreover, the GI50 in [7], in [8], in test [9], in test [10], in [11] and in test [12] was < 300 nM throughout. Besides, in [14], the GI50 was < 300 nM. The inhibition in vivo at 0.01 % in test [13] was ≥ 50%.

As to `Cc1ccc(C)c(NC(=O)N2Cc3c(NC(=O)C4([Si](C)(C)C)CCC4)n[nH]c3C2(C)C)c1F` [IV-669, N-(2-Fluoro-3,6-dimethylphenyl)-6,6-dimethyl-3-[1-(trimethylsilyl)cyclobutanecarboxamido]-4,6-dihydropyrrolo[3,4-c]pyrazole-5(1H)-carboxamide], the GI50 in test [1], in test [2], in test [3], in test [4], in [5] and in test [6] was < 300 nM in each case. In addition, the GI50 in [7], in [8], in test [9], in test [10], in [11] and in [12] was < 300 nM throughout. Further, the GI50 in [14] is < 300 nM.
